This note sets out measurements from US20260297109A1, “COMPOUNDS AS SUMO ACTIVATING ENZYME INHIBITORS” (WIGEN BIOMEDICINE TECHNOLOGY (SHANGHAI) CO., LTD., priority 2022, published 2026).

In this assay the target is T1, SAE (Homo sapiens, UniProt Q9UBT2).
T1 construct: endogenous in cells; host or cells: HCT116
T1 sequence (Q9UBT2 1-640): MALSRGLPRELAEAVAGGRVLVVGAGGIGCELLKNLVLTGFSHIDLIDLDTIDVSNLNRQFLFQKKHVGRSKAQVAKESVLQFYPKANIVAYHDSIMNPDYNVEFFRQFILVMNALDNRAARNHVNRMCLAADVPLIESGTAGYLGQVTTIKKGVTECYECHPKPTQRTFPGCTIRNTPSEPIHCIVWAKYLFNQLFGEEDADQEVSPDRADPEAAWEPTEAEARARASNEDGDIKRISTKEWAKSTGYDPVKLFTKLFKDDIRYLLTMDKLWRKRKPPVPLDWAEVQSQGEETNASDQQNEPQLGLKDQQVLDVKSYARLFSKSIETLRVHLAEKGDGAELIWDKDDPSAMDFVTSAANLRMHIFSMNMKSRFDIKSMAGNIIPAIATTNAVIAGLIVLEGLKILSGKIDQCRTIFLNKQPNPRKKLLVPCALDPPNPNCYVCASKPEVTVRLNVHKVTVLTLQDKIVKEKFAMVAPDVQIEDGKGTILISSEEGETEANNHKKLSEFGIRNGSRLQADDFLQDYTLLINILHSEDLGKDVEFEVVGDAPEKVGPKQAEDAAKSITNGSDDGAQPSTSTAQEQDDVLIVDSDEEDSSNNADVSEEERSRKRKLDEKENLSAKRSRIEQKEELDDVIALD
T1 sequence (Q9UBE0 1-346): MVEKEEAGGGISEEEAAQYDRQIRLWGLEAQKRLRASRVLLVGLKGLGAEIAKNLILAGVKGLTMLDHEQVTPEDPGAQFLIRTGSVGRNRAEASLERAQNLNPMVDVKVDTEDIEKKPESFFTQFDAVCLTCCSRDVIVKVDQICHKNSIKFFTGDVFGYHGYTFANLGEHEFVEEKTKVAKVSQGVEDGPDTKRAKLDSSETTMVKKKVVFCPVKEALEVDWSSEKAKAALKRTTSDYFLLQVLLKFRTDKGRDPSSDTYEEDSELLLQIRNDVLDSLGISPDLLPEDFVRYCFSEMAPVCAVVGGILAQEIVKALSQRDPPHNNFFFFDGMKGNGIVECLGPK
Description: SUMO IF: in vitro inhibitory activity assay against SAE in HCT116 cells (SUMO-2/3 immunofluorescence). The class given is cell-based. The following applies: class symbols, 6 h at 37° C. A digest of the protocol: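 HCT116 cells were treated with compound for 6 h at 37 °C, then PFA-fixed, Triton-permeabilised and BSA-blocked. They were stained overnight at 4 °C with anti-SUMO-2/3 (18H8) rabbit mAb (1:400), then with FITC anti-rabbit IgG (1:300). Fluorescence versus DMSO gave inhibition rate and IC50.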

Each structure is given as a SMILES string.

One may read the IC50 as the concentration at which inhibition is half-maximal. `[2H]C1([2H])Cc2ccc(Cl)cc2[C@@]2(C=Cc3sc(C(=O)c4cncnc4N[C@H]4C[C@H](O)[C@@H](COS(N)(=O)=O)[C@@H]4F)cc32)N1` [Compound 701] registered an IC50 of at most 50 nM.

For the molecule `NS(=O)(=O)OC[C@H]1[C@H](F)[C@@H](Nc2ncncc2C(=O)c2cc3c(s2)CO[C@]32NCCc3ccc(Cl)cc32)C[C@@H]1O` [Compound 703], the concentration for half-maximal inhibition (IC50) lay within 50 to 200 nM.

On to `NS(=O)(=O)OC[C@H]1[C@H](F)[C@@H](Nc2ncncc2C(=O)c2cc3c(s2)CC[C@]32NCC3(CC3)c3ccc(Cl)cc32)C[C@@H]1O` [Compound 704], for which the IC50 was in the range of 50 to 200 nM.

`NS(=O)(=O)OC[C@H]1[C@H](F)[C@@H](Nc2ncncc2C(=O)c2cc3c(s2)CC[C@]32NC3(CC3)Cc3ccc(Cl)cc32)C[C@@H]1O` [Compound 705] gave an IC50 of 50 to 200 nM.

`NS(=O)(=O)OC[C@H]1[C@H](F)[C@@H](Nc2ncncc2C(=O)c2cc3c(s2)CC[C@@]32OCCc3ccc(Cl)cc32)C[C@@H]1O` [Compound 706] returned an IC50 of over 200 nM.

For `NS(=O)(=O)OC[C@H]1[C@H](F)[C@@H](Nc2ncncc2C(=O)c2cc3c(s2)CC[C@]32OCCc3ccc(Cl)cc32)C[C@@H]1O` [Compound 707], the 50% inhibitory concentration (IC50) is at most 50 nM.

For `NS(=O)(=O)OC[C@H]1[C@H](F)[C@@H](Nc2ncncc2C(=O)c2cc3c(s2)CCCC32OCCc3ccccc32)C[C@@H]1O` (stereo partly drawn) [Compound 708], the half-inhibitory concentration (IC50) is over 200 nM.

Molecule `NS(=O)(=O)OC[C@H]1[C@H](F)[C@@H](Nc2ncncc2C(=O)c2cc3c(s2)CCC[C@@]32OCCc3ccccc32)C[C@@H]1O` [Compound 709] showed an IC50 of over 200 nM.

As for `NS(=O)(=O)OC[C@H]1[C@H](F)[C@@H](Nc2ncncc2C(=O)c2cc3c(s2)CCC[C@]32OCCc3ccccc32)C[C@@H]1O` [Compound 710], the half-maximal inhibitory concentration (IC50) lay in the range of 50 to 200 nM.

In turn, `NS(=O)(=O)OC[C@H]1[C@H](F)[C@@H](Nc2ncncc2C(=O)c2cc3c(s2)CCCC32OCCc3ccc(F)cc32)C[C@@H]1O` (stereo partly drawn) [Compound 711] displayed an IC50 of 50 to 200 nM.

The molecule `NS(=O)(=O)OC[C@H]1[C@H](F)[C@@H](Nc2ncncc2C(=O)c2cc3c(s2)CCC[C@@]32OCCc3ccc(F)cc32)C[C@@H]1O` [Compound 712] came in with an IC50 of over 200 nM.

Molecule `NS(=O)(=O)OC[C@H]1[C@H](F)[C@@H](Nc2ncncc2C(=O)c2cc3c(s2)CCC[C@]32OCCc3ccc(F)cc32)C[C@@H]1O` [Compound 713] showed an IC50 of at most 50 nM.

Regarding `N#Cc1ccc2c(c1)C1(CCCc3sc(C(=O)c4cncnc4N[C@H]4C[C@H](O)[C@@H](COS(N)(=O)=O)[C@@H]4F)cc31)OCC2` (stereo partly drawn) [Compound 714], the IC50 lay within 50 to 200 nM.

`N#Cc1ccc2c(c1)[C@]1(CCCc3sc(C(=O)c4cncnc4N[C@H]4C[C@H](O)[C@@H](COS(N)(=O)=O)[C@@H]4F)cc31)OCC2` [Compound 715] returned an IC50 of over 200 nM.

`N#Cc1ccc2c(c1)[C@@]1(CCCc3sc(C(=O)c4cncnc4N[C@H]4C[C@H](O)[C@@H](COS(N)(=O)=O)[C@@H]4F)cc31)OCC2` [Compound 716]: the concentration for half-maximal inhibition (IC50) is at most 50 nM.

For `CN1Cc2sc(C(=O)c3cncnc3N[C@H]3C[C@H](O)[C@@H](COS(N)(=O)=O)[C@@H]3F)cc2C2(C1)OCCc1ccccc12` (stereo partly drawn) [Compound 717], the IC50 was in the range of 50 to 200 nM.

`CN1Cc2sc(C(=O)c3cncnc3N[C@H]3C[C@H](O)[C@@H](COS(N)(=O)=O)[C@@H]3F)cc2[C@@]2(C1)OCCc1ccccc12` [Compound 718] showed a concentration for half-maximal inhibition (IC50) of over 200 nM.

In the case of `CN1Cc2sc(C(=O)c3cncnc3N[C@H]3C[C@H](O)[C@@H](COS(N)(=O)=O)[C@@H]3F)cc2[C@]2(C1)OCCc1ccccc12` [Compound 719], the IC50 was in the range of 50 to 200 nM.

With `CN1Cc2sc(C(=O)c3cncnc3N[C@H]3C[C@H](O)[C@@H](COS(N)(=O)=O)[C@@H]3F)cc2C2(C1)OCCc1ccc(F)cc12` (stereo partly drawn) [Compound 720], the 50% inhibitory concentration (IC50) fell in the range of 50 to 200 nM.

For the molecule `CN1Cc2sc(C(=O)c3cncnc3N[C@H]3C[C@H](O)[C@@H](COS(N)(=O)=O)[C@@H]3F)cc2[C@@]2(C1)OCCc1ccc(F)cc12` [Compound 721], the half-inhibitory concentration (IC50) is over 200 nM.

For `CN1Cc2sc(C(=O)c3cncnc3N[C@H]3C[C@H](O)[C@@H](COS(N)(=O)=O)[C@@H]3F)cc2[C@]2(C1)OCCc1ccc(F)cc12` [Compound 722], the half-inhibitory concentration (IC50) was at most 50 nM.

As to `CN1Cc2sc(C(=O)c3cncnc3N[C@H]3C[C@H](O)[C@@H](COS(N)(=O)=O)[C@@H]3F)cc2C2(C1)OCCc1ccc(Cl)cc12` (stereo partly drawn) [Compound 723], the IC50 is at most 50 nM.

Take `CN1Cc2sc(C(=O)c3cncnc3N[C@H]3C[C@H](O)[C@@H](COS(N)(=O)=O)[C@@H]3F)cc2[C@@]2(C1)OCCc1ccc(Cl)cc12` [Compound 724]: the IC50 is over 200 nM.

For `CN1Cc2sc(C(=O)c3cncnc3N[C@H]3C[C@H](O)[C@@H](COS(N)(=O)=O)[C@@H]3F)cc2[C@]2(C1)OCCc1ccc(Cl)cc12` [Compound 725], the IC50 was at most 50 nM.

On to `CCN1Cc2sc(C(=O)c3cncnc3N[C@H]3C[C@H](O)[C@@H](COS(N)(=O)=O)[C@@H]3F)cc2C2(C1)OCCc1ccc(F)cc12` (stereo partly drawn) [Compound 726], for which the half-inhibitory concentration (IC50) lay in the range of 50 to 200 nM.

On to `CCN1Cc2sc(C(=O)c3cncnc3N[C@H]3C[C@H](O)[C@@H](COS(N)(=O)=O)[C@@H]3F)cc2[C@@]2(C1)OCCc1ccc(F)cc12` [Compound 727], for which the half-inhibitory concentration (IC50) is over 200 nM.

In the case of `CCN1Cc2sc(C(=O)c3cncnc3N[C@H]3C[C@H](O)[C@@H](COS(N)(=O)=O)[C@@H]3F)cc2[C@]2(C1)OCCc1ccc(F)cc12` [Compound 728], the IC50 is at most 50 nM.

The molecule `CCN1Cc2sc(C(=O)c3cncnc3N[C@H]3C[C@H](O)[C@@H](COS(N)(=O)=O)[C@@H]3F)cc2C2(C1)OCCc1ccc(Cl)cc12` (stereo partly drawn) [Compound 729] registered an IC50 of at most 50 nM.

In the case of `CCN1Cc2sc(C(=O)c3cncnc3N[C@H]3C[C@H](O)[C@@H](COS(N)(=O)=O)[C@@H]3F)cc2[C@@]2(C1)OCCc1ccc(Cl)cc12` [Compound 730], the IC50 was over 200 nM.

Regarding `CCN1Cc2sc(C(=O)c3cncnc3N[C@H]3C[C@H](O)[C@@H](COS(N)(=O)=O)[C@@H]3F)cc2[C@]2(C1)OCCc1ccc(Cl)cc12` [Compound 731], the IC50 is at most 50 nM.

`CC(C)N1Cc2sc(C(=O)c3cncnc3N[C@H]3C[C@H](O)[C@@H](COS(N)(=O)=O)[C@@H]3F)cc2C2(C1)OCCc1ccc(F)cc12` (stereo partly drawn) [Compound 732] displayed an IC50 of 50 to 200 nM.

Molecule `CC(C)N1Cc2sc(C(=O)c3cncnc3N[C@H]3C[C@H](O)[C@@H](COS(N)(=O)=O)[C@@H]3F)cc2[C@@]2(C1)OCCc1ccc(F)cc12` [Compound 733] came in with a half-inhibitory concentration (IC50) of over 200 nM.

`CC(C)N1Cc2sc(C(=O)c3cncnc3N[C@H]3C[C@H](O)[C@@H](COS(N)(=O)=O)[C@@H]3F)cc2[C@]2(C1)OCCc1ccc(F)cc12` [Compound 734] returned an IC50 of at most 50 nM.

`CC(C)N1Cc2sc(C(=O)c3cncnc3N[C@H]3C[C@H](O)[C@@H](COS(N)(=O)=O)[C@@H]3F)cc2C2(C1)OCCc1ccc(Cl)cc12` (stereo partly drawn) [Compound 735]: the IC50 lay within 50 to 200 nM.

With `CC(C)N1Cc2sc(C(=O)c3cncnc3N[C@H]3C[C@H](O)[C@@H](COS(N)(=O)=O)[C@@H]3F)cc2[C@@]2(C1)OCCc1ccc(Cl)cc12` [Compound 736], the half-inhibitory concentration (IC50) was over 200 nM.

Take `CC(C)N1Cc2sc(C(=O)c3cncnc3N[C@H]3C[C@H](O)[C@@H](COS(N)(=O)=O)[C@@H]3F)cc2[C@]2(C1)OCCc1ccc(Cl)cc12` [Compound 737]: the 50% inhibitory concentration (IC50) was at most 50 nM.
